Measured values: PMC11811207, “Macrocycle-based PROTACs selectively degrade cyclophilin A and inhibit HIV-1 and HCV” (Nature Communications, 2025)

Assays:
[1] = molecular target: T1, CypA (Homo sapiens, UniProt P62937); assay: CypA degradation in Jurkat cells by immunoblot; type: cell-based; conditions: for effect on CypA levels in the absence of PROTAC: Jurkat, MLN4924 1 μM 6 h or VHLi 50 μM
T1 construct: endogenous in cells; host or cells: Jurkat; also Calu-3, THP-1, MDMs, U87, Huh7, primary human CD4+ T cells
T1 sequence (P62937 whole entry): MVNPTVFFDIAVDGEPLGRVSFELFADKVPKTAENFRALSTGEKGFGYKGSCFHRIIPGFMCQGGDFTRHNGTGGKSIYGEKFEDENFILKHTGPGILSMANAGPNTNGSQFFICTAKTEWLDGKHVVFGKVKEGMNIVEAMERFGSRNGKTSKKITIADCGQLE
Protocol: (§1) U87 cells (5 × 10^4 cells/well, 12 well plate), Huh7 cells (1 × 10^5 cells/well, 12 well plate), Calu-3 cells (1 × 10^5 cells/well, 12 well plate), Jurkat cells (5 × 10^5 cells/mL, 24 well plate, 1 mL/well), THP-1 Dual cells (4 × 10^5 cells/mL, 24 well plate, 1 mL/well), primary MDMs (confluent well), or primary resting/activated T cells (1-2 × 10^6 cells/well, 96 well plate) were treated with 5 μM Cyp-PROTAC or DMSO for 48 h. […] MLN4924 was washed out before the addition of Cyp-PROTAC, but VHLi was kept in for the duration of the experiment. In competitor experiments, Jurkat cells were treated with 10 μM TWH106 and 1 μM Cyp-PROTAC simultaneously for 48 h. For the time course experiments, Jurkat cells were treated with 5 μM Cyp inhibitor or DMSO and cells were harvested at indicated time points. For the titration experiments, Jurkat cells were treated with 0.01 – 10 μM Cyp inhibitor or DMSO for 24 h or 48 h. Before harvesting for immunoblot, cells were washed twice in PBS.
(§2) Cells were lysed in RIPA buffer (50 mM Tris pH 8.0, 150 mM sodium chloride, 1.0% Triton X-100, 0.5% sodium deoxycholate, 0.1% sodium dodecyl sulphate (SDS)) supplemented with protease inhibitors (cOmplete mini, EDTA-free, Roche) and phosphatase inhibitors (PhosSTOP, Roche). After 10 min incubation on ice, samples were centrifuged (16000 × g, 10 min, 4 °C), and the supernatant protein content was determined using Pierce^TM BCA Protein Assay Kit (Thermo Fisher Scientific). Samples were combined with 4x Laemmli sample buffer (200 mM Tris pH 6.8, 40% glycerol, 8% SDS, 0.4% Bromophenol Blue) and the appropriate amount of RIPA buffer to normalise protein concentrations of samples and boiled for 5 min. Proteins were separated by SDS-PAGE on 15% polyacrylamide gels and transferred onto nitrocellulose membrane using the Trans-Blot Turbo Transfer System (Bio-Rad). Blots were blocked in 5% milk in PBS-Tween for 1 h and incubated with primary antibodies in 5% milk in PBS-Tween overnight. After washing in PBS-Tween, blots were incubated with IRDye® fluorescent secondary antibodies (LI-COR) for 1 h, washed in PBS-Tween, then PBS, and visualised on an LI-COR Odyssey imaging system. Uncropped and unprocessed scans are provided in the Source Data file (main figures) and in the Figshare research data repository 10.6084/m9.figshare.c.7387381 (supplementary figures). […] Densitometry analysis was performed using ImageJ (v2.14.0), and normalised protein densities were calculated by normalisation to β-actin loading control and untreated control as stated. […]
DC50s and Dmaxs were calculated from sigmoidal (4-parameter logistic) fits, mean (n = 2 independent experiments).

[2] = test system: CypA and CypB; assay: CypA and CypB immunoblot in Jurkat cells treated with CsA-based PROTAC JW4-10; type: cell-based, human
Protocol: as §1
as §2, with “(Bio-Rad).” for “(Bio-Rad). Blots were blocked in 5% milk in PBS-Tween for 1 h and incubated with primary antibodies in 5% milk in PBS-Tween overnight. After washing in PBS-Tween, blots were incubated with IRDye® fluorescent secondary antibodies (LI-COR) for 1 h, washed in PBS-Tween, then PBS, and visualised on an LI-COR Odyssey imaging system. Uncropped and unprocessed scans are provided in the Source Data file (main figures) and in the Figshare research data repository 10.6084/m9.figshare.c.7387381 (supplementary figures).”

[3] = test system: HCV JFH-1 replicon; assay: HCV JFH-1 subgenomic replicon (luciferase) in Huh7 cells; type: cell-based; conditions: Huh7, 5 μM pretreatment, washed out, not readded
Protocol: HCV JFH-1 subgenomic replicon (SGR) (pFKI389Luc/NS3-3’_dg_JFH, previously described)[87] plasmid DNA (10 μg) was linearised by digestion with MluI, and purified linearised DNA (1 μg) was used as a template for in vitro transcription, according to the MEGAscript T7 Transcription Kit instructions (Invitrogen). RNA was resuspended in nuclease-free water at a concentration of 1 μg/μL, aliquoted, and stored at − 80 °C.
HCV SGR RNA (5 μg or 1 μg) was electroporated into 2 × 10^6 or 2 × 10^5 Huh7 cells, respectively, using a Neon transfection system (Thermo Scientific). Single-cell suspensions were washed with PBS and resuspended in 100 μL or 10 μL of Buffer R, respectively. Resuspended cells were mixed with RNA and loaded into a Neon Tip and electroporated using the Neon Transfection system (1400 V, 20 ms, 1 pulse) and resuspended in 12 mL or 1.2 mL of media, respectively, prior to seeding in 96 well plates at a density of ~2 × 10^4 cells/well. […] Experiments were carried out in triplicate. Firefly luciferase activity was measured on a Glomax (Promega) at 4 h post electroporation (hpe) and 48 hpe using the SteadyGlo reagent (Promega) according to the manufacturer’s instructions. Data at 48 hpe were normalised to the input luciferase signal at 4 hpe.

[4] = test system: U87 cells; assay: MTT viability assay, U87 cells; type: cell-based; conditions: U87, 10 μM
Protocol: (§3) U87 cells (1 × 10^4 cells/well, 48 well plate) or Jurkat cells (5 × 10^3 cells/well, 96 well U-bottom plate) were treated with serial dilutions of Cyp inhibitors as indicated. After 48 h, the media was aspirated and replaced with fresh Cyp inhibitor dilutions and the lentiviral vector (MOI: 0.25) for a further 48 h. Experiments were carried out in triplicate.
(§4) 3-(4,5-Dimethyl-2-thiazolyl)-2,5-diphenyl-2H-tetrazolium bromide (MTT) assay was performed on U87 cells, Jurkat cells or Huh7 cells treated with Cyp inhibitors as indicated. At the time point indicated, 10% v/v MTT (stock at 5 mg/mL in PBS) (475989, Sigma Aldrich) was added, and cells were incubated for 1 - 2 h at 37 °C. 100 μL solubilisation solution (10% SDS and 0.01 M HCl) was added, and after overnight incubation at 37 °C, absorbance was measured at 570 nm. Experiments were carried out in triplicate.

[5] = molecular target: full-length human CypA (Homo sapiens, UniProt P62937); assay: SPR against CypA (immobilised on CM5 chip)
Chain of full-length human CypA (P62937 whole entry): as above

[6] = test system: THP-1 cell proteome; assay: Mass spectrometry-based proteomics in THP-1 cells; type: cell-based, human; conditions: THP-1, 5 μM, 72 h
Protocol: THP-1 Dual cells were treated with 5 μM Cyp inhibitor or DMSO for 72 h. After washing with PBS, cells were lysed (5% SDS, 5 mM tris(2-carboxyethyl)phosphine (TCEP), 10 mM chloroacetamide (CAA), 100 mM Tris, 1% Triton X-100, pH 8.5) and boiled for 10 min followed by sonication in a water bath for 10 min. Protein concentration was estimated by BCA assay (Thermo Fisher Scientific). Protein digestion was automated on a KingFisher APEX robot (Thermo Fisher Scientific) in a 96-well format using a protocol from Koenig et al.[83] with minor modifications. […]
Peptides were then dissolved in 0.5% TFA before liquid chromatography–tandem mass spectrometry (MS/MS) analysis. The mixture of tryptic peptides was analysed using an Ultimate3000 high-performance liquid chromatography system coupled online to an Eclipse mass spectrometer (Thermo Fisher Scientific). […]
All raw files were analysed by DIA-NN v1.8.1[84], searching against library generated automatically using Human reference proteome (UniProt) and standard settings: peptides from 7 to 30 amino acids, max number of missed cleavages of 1, oxidation (M) and protein-acetylation as only variable modifications. The data files generated by DIA-NN were analysed using Perseus version 2.0.10.0[85]. […]

[7] = test system: Jurkat cells; assay: MTT viability assay, Jurkat cells; type: cell-based, human; conditions: highest concentrations tested
Protocol: as §3, §4

[8] = molecular target: T2, CypB (Homo sapiens, UniProt P23284); assay: CypB levels in Jurkat cells by immunoblot; type: cell-based
T2 construct: endogenous in cells; host or cells: Jurkat
T2 sequence (P23284 34-216): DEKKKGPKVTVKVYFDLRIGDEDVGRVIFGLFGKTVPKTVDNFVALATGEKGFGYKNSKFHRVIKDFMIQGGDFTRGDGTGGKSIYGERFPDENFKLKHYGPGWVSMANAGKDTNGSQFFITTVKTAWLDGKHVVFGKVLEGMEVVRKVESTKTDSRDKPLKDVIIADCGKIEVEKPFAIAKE
Protocol: as §1, with “For the time course experiments, Jurkat cells were treated with 5 μM Cyp inhibitor or DMSO and cells were harvested at indicated time points. For the titration experiments, Jurkat cells were treated with 0.01 – 10 μM Cyp inhibitor or DMSO for 24 h or 48 h. Before harvesting for immunoblot, cells were washed twice in PBS.” left out
Cells were lysed in RIPA buffer (50 mM Tris pH 8.0, 150 mM sodium chloride, 1.0% Triton X-100, 0.5% sodium deoxycholate, 0.1% sodium dodecyl sulphate (SDS)) supplemented with protease inhibitors (cOmplete mini, EDTA-free, Roche) and phosphatase inhibitors (PhosSTOP, Roche). After 10 min incubation on ice, samples were centrifuged (16000 × g, 10 min, 4 °C), and the supernatant protein content was determined using Pierce^TM BCA Protein Assay Kit (Thermo Fisher Scientific). […] Densitometry analysis was performed using ImageJ (v2.14.0), and normalised protein densities were calculated by normalisation to β-actin loading control and untreated control as stated. […]

[9] = molecular target: N-truncated CypB (Homo sapiens, UniProt P23284); assay: SPR against N-truncated CypB (immobilised on CM5 chip)
Chain of N-truncated CypB (P23284 34-212): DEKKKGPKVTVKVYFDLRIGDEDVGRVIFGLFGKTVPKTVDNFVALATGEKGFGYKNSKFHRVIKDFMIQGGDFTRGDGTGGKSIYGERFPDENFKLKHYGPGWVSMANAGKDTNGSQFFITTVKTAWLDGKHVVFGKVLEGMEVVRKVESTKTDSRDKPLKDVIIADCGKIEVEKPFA

[10] = test system: HIV-1 NL4.3; assay: Wild-type HIV-1 spreading infection in activated primary CD4+ T cells
Protocol: NL4.3 stocks were produced by transfection of HEK293T cells in 150 cm^2 flasks with 9 μg pNL4.3 using 60 μL Fugene 6 (E2692, Promega) according to the manufacturer’s instructions. Supernatants were harvested at 48 and 72 h, filtered, DNase treated, purified and concentrated by ultracentrifugation through a 20% sucrose cushion and resuspended in RPMI with 10% FBS. Viral titres were determined by measuring reverse transcriptase (RT) activity in mU by SG-PERT assay[86].
To infect activated primary CD4+ T cells with HIV-1, cells were mixed and incubated with HIV-1 NL4.3 virus (2000 mU RT/10^6 cells) for 4 h at 37 °C. […] After exposure to the virus, T cells were washed twice in PBS by centrifugation (400 × g, 5 min) and resuspended in fresh culture medium. […]
For primary T cell infection experiments, cells were washed in PBS and stained with fixable Zombie R685 Live/Dead dye (423119, BioLegend, 1:500) for 5 min at 37 °C. […] Intracellular CypA was detected by incubating permeabilised cells with CypA antibody (clone 1F4-1B5, ab58144, Abcam, 1:1000) for 30 min, followed by washing (PBS) and 15 min incubation with secondary anti-mouse AlexaFluor488- or AlexaFluor647-tagged antibody. After washing with PBS (700 × g, 5 min, 4 °C) to remove excess antibodies, data were acquired on a NovoSampler Pro (Agilent) and analysed using FlowJo v10.10 (Tree Star) or NovoExpress 1.5.0 (Agilent).

Cc1ncsc1-c1ccc(CNC(=O)[C@@H]2C[C@@H](O)CN2C(=O)[C@@H](NC(=O)C2(C#N)CC2)C(C)(C)C)cc1 [VH298, reference compound]
effect on CypA levels in the absence of PROTAC [1]: did not impact CypA levels

NS(=O)(=O)OC[C@@H]1C[C@@H](n2ccc3c(N[C@H]4CCc5ccccc54)ncnc32)C[C@@H]1O [MLN4924, reference compound]
effect on CypA levels in the absence of PROTAC [1]: no impact on CypA levels

CC[C@@H]1NC(=O)[C@H]([C@H](O)[C@H](C)C/C=C/CCCCC(=O)N[C@H](C(=O)N2C[C@H](O)C[C@H]2C(=O)N[C@@H](C)c2ccc(-c3scnc3C)cc2)C(C)(C)C)N(C)C(=O)[C@H](C(C)C)N(C)C(=O)[C@H](CC(C)C)N(C)C(=O)[C@H](CC(C)C)N(C)C(=O)[C@@H](C)NC(=O)[C@H](C)NC(=O)[C@H](CC(C)C)N(C)C(=O)[C@H](C(C)C)NC(=O)[C@H](CC(C)C)N(C)C(=O)CN(C)C1=O [JW4-10]
degradation of CypA and CypB ([2]; 5 μM, 48 h): degraded both CypA and CypB
rescue by excess VHL inhibitor VH298 pretreatment ([2]; 50 µM VHLi 2 h before 5 µM PROTAC): rescued CypA, but not CypB
rescue by MLN4924 pretreatment ([2]; MLN4924 1 μM 6 h before 5 μM PROTAC): fully rescued CypA, but not CypB

C[C@@H]1NC(=O)[C@H](Cc2ccc([N+](=O)[O-])cc2)NC(=O)C/C=C/c2ccc3ccc(nc3c2)[C@@H](C)OC(=O)[C@@H]2CCCN(N2)C1=O [TWH106]
effect on CypA protein levels, time course ([1]; Jurkat cells, 5 μM, up to 6 days): did not reduce CypA levels except a small decrease after 6 days
effect on CypA levels, dose response ([1]; Jurkat cells, 0.01 – 10 μM, 24 h and 48 h): mild CypA loss only at 10 µM and after 24 hours
antiviral activity against HCV replicon, pretreatment only [3]: abrogated
cell viability (MTT) [4]: slightly toxic
Kd ([5]; CypA KD, SPR equilibrium analysis, full-length CypA, mean of two independent experiments ± SD): 53 ± 5 nM
Kd ([5]; CypA dissociation constant (KD) from sigmoid fit, representative experiment, one of two independent experiments, Supplementary Fig. 2): 48 nM
effect on CypA in proteomics [6]: did not affect CypA levels
cell viability (MTT) [7]: toxic
effect on CypB levels, time course ([8]; 5 μM, 6 days): most effectively reduced
effect on CypB levels, dose response ([8]; 0.01–10 μM, 48 h): dose-dependent decrease in CypB
Kd ([9]; CypB KD, SPR equilibrium analysis, N-truncated CypB, mean of two independent experiments ± SD): 139 ± 24 nM
Kd ([9]; CypB dissociation constant (KD) from sigmoid fit, representative experiment, one of two independent experiments, Supplementary Fig. 3): 163 nM
lower affinity for N-truncated CypB compared to CypA ([9]; SPR KD CypB vs CypA): 2-3 fold
antiviral activity, pretreatment only ([10]; 5 μM 48 h pretreatment, not readded after infection): abrogated
antiviral activity (Gag+ cells, viral particles in supernatant) ([10]; continuous treatment 1 μM or 5 μM): antiviral
